According to ChEMBL document CHEMBL5465560, “Selectivity Literature for EUbOPEN Chemogenomic Library” (2024):

Key:
[1] = molecular target: Homeodomain-interacting protein kinase 1 (Homo sapiens, UniProt Q86Z02); assay: Selectivity interaction (KinomeScan (DiscoverX)) EUB0001049a HIPK1; settings: at 1 µM
[2] = molecular target: Activated CDC42 kinase 1 (Homo sapiens, UniProt Q07912); assay: Selectivity interaction (KinaseProfiler screening (Millipore)) EUB0000601a TNK2; settings: at 3 µM
[3] = molecular target: Vasopressin V2 receptor (Homo sapiens, UniProt P30518); assay: Selectivity interaction (Eurofins CEREP Diversity Profile (receptors and ion channels)) EUB0000279b AVPR2; settings: at 10 µM
[4] = molecular target: T1, Mitogen-activated protein kinase kinase kinase 5 (Homo sapiens) (UniProt Q99683); assay: Selectivity interaction (ActivX KiNativ screen (kinase selectivity in THP-1 cell lysates)) EUB0000639a MAP3K5; type: subcellular; settings: lysate, at 0.01 µM
T1 sequence (whole entry): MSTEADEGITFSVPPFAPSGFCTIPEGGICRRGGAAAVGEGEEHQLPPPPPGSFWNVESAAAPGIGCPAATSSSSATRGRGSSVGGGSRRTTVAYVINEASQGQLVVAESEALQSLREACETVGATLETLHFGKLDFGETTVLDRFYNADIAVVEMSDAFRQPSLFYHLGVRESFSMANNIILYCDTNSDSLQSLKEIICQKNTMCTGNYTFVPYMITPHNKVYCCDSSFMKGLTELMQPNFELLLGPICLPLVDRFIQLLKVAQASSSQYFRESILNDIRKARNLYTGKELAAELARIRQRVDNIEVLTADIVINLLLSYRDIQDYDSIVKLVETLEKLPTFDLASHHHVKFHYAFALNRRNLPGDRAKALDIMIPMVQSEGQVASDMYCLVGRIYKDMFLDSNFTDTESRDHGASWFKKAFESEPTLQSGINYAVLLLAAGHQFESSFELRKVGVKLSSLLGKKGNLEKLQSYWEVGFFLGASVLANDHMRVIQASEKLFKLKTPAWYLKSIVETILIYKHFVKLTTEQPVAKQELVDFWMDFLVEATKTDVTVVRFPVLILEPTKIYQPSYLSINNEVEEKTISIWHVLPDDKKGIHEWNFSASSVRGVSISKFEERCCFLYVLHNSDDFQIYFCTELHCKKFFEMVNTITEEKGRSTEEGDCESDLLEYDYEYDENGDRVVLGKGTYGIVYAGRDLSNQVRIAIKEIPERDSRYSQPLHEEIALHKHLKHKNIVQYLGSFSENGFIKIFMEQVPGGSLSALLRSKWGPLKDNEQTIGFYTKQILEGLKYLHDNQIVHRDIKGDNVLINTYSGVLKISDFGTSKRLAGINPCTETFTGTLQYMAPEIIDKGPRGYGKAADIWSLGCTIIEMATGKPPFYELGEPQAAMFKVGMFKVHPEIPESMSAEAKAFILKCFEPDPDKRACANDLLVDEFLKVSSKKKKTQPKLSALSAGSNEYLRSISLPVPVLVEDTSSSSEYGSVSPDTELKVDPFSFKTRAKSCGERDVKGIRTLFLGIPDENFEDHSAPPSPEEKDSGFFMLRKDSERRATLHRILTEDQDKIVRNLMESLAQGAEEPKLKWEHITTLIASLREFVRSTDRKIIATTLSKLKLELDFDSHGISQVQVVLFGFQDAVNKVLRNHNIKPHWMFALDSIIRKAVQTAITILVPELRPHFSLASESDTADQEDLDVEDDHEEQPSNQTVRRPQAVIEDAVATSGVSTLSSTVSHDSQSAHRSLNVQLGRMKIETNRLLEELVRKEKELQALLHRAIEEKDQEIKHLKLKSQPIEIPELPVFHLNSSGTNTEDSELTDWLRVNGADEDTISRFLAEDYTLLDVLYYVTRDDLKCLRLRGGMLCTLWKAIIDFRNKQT

[5] = molecular target: Vascular endothelial growth factor receptor 1 (Homo sapiens) (UniProt P17948); assay: Selectivity interaction (Ambit KINOMEscan and KiNATiv profiling in Jurkat cells) EUB0000090b FLT1; type: cell-based; settings: at 1 µM
[6] = molecular target: Phosphatidylinositol 4-kinase beta (Homo sapiens, UniProt Q9UBF8); assay: Selectivity interaction (KinomeScan (DiscoverX)) EUB0000045b PI4KB
[7] = molecular target: T2, Serine/threonine-protein kinase LATS1 (Homo sapiens) (UniProt O95835); assay: Selectivity interaction (KinomeScan (DiscoverX)) EUB0000607a LATS1; settings: at 10 µM
T2 sequence (whole entry): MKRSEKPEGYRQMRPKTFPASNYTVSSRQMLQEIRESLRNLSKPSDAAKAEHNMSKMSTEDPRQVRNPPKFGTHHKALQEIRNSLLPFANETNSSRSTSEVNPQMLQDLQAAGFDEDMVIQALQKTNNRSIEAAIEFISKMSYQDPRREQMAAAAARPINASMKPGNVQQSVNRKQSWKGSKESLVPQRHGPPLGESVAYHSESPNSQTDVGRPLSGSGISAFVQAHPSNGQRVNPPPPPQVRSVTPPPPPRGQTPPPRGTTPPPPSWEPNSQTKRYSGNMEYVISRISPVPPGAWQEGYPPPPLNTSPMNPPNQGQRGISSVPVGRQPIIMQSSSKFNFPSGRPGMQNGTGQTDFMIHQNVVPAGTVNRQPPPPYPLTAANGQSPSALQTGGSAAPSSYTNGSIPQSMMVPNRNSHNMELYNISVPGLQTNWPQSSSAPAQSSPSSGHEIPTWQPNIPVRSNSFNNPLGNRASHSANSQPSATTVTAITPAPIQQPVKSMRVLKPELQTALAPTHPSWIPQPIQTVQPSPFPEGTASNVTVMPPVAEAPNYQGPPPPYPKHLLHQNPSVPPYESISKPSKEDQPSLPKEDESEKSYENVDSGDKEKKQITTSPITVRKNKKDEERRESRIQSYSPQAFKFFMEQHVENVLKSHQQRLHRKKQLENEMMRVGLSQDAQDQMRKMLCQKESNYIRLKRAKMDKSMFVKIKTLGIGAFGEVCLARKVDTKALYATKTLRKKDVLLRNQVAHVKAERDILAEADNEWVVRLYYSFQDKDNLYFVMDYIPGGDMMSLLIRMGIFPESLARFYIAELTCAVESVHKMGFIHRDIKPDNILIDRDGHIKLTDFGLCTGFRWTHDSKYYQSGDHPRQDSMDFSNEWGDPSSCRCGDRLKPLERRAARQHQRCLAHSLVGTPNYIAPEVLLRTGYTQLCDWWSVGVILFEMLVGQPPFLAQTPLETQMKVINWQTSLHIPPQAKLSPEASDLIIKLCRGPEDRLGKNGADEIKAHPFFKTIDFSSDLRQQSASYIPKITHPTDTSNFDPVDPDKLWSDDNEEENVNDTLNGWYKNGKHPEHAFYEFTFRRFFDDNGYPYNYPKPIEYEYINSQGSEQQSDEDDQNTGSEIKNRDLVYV

[8] = molecular target: STE20-like serine/threonine-protein kinase (Homo sapiens, UniProt Q9H2G2); assay: Selectivity interaction (KinomeScan (DiscoverX)) EUB0000607a SLK; settings: at 10 µM

Phosphatidylinositol 4-kinase beta, sequence (Q9UBF8 2-816 limits assumed): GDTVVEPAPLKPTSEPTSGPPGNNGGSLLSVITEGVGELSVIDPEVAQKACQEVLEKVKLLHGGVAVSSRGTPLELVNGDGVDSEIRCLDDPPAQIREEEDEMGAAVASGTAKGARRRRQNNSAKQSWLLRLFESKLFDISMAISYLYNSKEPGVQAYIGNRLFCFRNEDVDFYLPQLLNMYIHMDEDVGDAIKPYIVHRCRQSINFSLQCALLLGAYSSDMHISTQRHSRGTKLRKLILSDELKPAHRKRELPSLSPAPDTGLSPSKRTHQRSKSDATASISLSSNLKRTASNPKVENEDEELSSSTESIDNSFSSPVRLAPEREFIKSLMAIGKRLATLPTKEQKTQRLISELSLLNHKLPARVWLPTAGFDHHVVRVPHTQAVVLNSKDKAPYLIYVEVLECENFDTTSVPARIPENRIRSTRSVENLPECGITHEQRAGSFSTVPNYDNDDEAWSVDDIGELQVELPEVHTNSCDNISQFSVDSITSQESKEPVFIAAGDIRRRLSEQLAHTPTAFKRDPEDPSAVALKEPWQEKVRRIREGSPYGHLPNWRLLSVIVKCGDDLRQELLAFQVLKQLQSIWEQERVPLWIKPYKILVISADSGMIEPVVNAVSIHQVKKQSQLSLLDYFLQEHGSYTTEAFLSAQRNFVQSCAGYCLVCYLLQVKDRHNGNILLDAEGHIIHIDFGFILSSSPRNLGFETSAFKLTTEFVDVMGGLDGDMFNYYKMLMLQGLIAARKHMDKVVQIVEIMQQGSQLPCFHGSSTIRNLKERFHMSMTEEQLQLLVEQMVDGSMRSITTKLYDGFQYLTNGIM
Activated CDC42 kinase 1, sequence (Q07912 whole entry, looked up): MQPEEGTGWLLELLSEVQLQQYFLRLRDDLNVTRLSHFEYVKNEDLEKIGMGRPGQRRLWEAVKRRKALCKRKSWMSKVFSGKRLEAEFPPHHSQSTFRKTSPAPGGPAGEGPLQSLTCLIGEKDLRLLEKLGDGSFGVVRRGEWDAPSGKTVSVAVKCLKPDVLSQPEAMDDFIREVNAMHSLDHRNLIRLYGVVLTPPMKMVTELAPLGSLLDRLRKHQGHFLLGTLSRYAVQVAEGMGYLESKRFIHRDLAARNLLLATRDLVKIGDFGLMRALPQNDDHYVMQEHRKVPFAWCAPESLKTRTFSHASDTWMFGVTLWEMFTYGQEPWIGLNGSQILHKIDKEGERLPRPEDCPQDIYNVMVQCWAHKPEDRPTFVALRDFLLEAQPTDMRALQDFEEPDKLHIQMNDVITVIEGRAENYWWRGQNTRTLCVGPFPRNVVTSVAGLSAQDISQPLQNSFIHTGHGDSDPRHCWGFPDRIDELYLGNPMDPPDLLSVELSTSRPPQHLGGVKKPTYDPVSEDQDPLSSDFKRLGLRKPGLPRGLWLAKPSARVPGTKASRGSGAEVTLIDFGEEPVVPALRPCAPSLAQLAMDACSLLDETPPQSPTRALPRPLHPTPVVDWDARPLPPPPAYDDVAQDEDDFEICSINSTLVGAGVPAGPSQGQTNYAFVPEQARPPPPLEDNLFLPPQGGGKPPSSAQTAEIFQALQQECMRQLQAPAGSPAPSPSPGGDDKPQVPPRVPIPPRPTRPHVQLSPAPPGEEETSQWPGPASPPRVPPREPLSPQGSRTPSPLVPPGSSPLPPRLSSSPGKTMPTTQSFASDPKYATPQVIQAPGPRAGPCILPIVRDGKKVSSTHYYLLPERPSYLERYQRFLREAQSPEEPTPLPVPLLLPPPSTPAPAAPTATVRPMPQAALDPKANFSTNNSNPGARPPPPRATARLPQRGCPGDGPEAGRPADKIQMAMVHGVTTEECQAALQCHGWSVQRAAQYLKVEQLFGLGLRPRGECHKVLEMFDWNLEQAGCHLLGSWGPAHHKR
Vascular endothelial growth factor receptor 1 (Homo sapiens), sequence (P17948 whole entry): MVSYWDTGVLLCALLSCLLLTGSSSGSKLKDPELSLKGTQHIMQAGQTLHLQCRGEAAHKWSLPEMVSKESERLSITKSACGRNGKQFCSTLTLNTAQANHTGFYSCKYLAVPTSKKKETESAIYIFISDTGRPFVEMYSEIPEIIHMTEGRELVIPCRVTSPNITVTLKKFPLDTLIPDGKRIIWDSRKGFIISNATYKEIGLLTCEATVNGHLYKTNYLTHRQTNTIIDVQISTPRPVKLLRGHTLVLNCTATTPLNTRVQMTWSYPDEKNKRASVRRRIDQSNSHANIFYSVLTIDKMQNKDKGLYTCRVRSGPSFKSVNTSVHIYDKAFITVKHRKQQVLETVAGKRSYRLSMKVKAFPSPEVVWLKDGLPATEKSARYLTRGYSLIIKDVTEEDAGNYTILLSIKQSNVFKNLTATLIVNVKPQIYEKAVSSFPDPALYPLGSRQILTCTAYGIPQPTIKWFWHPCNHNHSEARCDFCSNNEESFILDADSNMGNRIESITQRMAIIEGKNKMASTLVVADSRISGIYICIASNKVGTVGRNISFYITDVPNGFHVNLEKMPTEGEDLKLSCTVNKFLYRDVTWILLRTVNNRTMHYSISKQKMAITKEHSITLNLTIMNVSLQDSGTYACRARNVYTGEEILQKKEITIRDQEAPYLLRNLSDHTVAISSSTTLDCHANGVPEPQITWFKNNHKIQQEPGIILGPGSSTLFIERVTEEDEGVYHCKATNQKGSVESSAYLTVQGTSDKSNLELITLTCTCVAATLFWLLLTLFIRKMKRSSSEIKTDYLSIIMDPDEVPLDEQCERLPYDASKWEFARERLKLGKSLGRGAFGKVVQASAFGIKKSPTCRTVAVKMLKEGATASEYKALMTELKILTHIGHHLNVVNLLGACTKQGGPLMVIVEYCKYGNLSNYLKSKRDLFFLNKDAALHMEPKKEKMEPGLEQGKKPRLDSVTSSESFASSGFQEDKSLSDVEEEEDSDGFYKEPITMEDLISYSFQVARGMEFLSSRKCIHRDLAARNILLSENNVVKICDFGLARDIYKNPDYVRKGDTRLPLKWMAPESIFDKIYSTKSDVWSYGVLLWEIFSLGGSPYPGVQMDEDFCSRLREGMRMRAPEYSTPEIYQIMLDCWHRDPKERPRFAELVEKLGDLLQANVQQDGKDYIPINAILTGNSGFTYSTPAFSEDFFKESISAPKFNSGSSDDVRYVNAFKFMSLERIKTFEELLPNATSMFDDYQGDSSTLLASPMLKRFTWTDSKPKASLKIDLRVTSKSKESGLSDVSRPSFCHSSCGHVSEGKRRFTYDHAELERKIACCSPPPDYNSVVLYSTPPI
Homeodomain-interacting protein kinase 1, sequence (Q86Z02 whole entry, looked up): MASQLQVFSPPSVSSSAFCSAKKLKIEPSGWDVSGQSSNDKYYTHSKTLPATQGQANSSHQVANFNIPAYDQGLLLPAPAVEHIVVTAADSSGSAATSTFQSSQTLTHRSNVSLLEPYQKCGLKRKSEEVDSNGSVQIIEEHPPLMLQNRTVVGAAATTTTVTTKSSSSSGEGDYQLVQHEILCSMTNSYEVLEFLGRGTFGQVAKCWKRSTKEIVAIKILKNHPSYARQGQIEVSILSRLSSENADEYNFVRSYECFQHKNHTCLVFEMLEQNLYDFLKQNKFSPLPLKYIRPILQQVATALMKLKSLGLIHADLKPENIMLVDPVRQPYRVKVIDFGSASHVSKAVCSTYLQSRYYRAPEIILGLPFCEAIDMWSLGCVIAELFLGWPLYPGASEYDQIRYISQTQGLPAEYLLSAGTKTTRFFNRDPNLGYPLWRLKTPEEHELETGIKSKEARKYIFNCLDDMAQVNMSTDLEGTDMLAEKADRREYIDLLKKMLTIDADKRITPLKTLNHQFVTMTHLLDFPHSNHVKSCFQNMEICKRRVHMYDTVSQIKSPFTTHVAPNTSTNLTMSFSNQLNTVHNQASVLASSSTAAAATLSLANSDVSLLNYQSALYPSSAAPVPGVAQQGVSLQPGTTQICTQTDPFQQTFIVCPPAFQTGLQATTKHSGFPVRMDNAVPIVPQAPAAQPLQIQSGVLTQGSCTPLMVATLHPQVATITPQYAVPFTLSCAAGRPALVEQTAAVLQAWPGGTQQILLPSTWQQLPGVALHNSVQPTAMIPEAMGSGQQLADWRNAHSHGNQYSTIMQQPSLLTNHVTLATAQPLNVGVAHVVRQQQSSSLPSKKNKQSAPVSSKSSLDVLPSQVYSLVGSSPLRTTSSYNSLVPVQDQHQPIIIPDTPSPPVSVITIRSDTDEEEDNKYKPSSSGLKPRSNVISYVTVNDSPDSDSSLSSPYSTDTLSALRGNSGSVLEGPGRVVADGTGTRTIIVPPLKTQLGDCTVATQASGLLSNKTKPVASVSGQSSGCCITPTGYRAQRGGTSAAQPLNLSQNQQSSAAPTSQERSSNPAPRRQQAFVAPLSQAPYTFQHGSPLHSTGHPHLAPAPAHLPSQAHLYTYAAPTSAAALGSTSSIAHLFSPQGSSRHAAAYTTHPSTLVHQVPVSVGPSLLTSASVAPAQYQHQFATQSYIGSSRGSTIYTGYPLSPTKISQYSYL
Vasopressin V2 receptor, sequence (P30518 whole entry): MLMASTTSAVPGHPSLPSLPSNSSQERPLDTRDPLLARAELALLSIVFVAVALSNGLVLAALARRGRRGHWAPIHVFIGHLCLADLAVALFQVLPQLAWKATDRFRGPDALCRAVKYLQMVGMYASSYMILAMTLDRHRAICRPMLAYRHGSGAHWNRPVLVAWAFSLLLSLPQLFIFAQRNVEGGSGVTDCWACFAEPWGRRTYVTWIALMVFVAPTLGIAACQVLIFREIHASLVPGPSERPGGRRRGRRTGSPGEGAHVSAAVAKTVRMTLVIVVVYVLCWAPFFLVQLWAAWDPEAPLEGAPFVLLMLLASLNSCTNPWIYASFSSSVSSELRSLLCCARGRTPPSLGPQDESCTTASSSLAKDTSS

Molecule `COc1cc(Nc2nc(C)cc(-c3cnn4nc(OC)ccc34)n2)cc(C(F)(F)F)c1` has a % of control [1] of 70%.
Work on `CCc1cc(Nc2nccc(-c3c(-c4ccc(OC)c(C(=O)Nc5c(F)cccc5F)c4)nc4ccccn34)n2)c(OC)cc1N1CCC(N2CCN(S(C)(=O)=O)CC2)CC1` yielded a % of inhibition [2] of 34%.
Work on `CC(=O)c1cc(-c2ccccc2OCC2CC2)c2ncccn12` yielded a % of control [3] of 109%.
For `CC[C@@H]1[C@H](F)C(=O)N[C@@H]1COc1nccc2cc(C(N)=O)c(OC)cc12` [ZIMLOVISERTIB], the % of inhibition [4] was -5.8%.
`CN(C)C/C=C/C(=O)Nc1ccc(C(=O)N2CCCC(Nc3ncc(Cl)c(-c4c[nH]c5ccccc45)n3)C2)cc1` (centres undefined) was tested, and the % of control [5] was 85%.
For `C=CC(=O)Nc1cc(-n2c(=O)ccc3cnc4ccc(-c5ccc(NS(C)(=O)=O)cc5)cc4c32)ccc1C`, the % of control ([6]; at 1 µM) was 79% and the % of control ([6]; at 10 µM) was 20%.
`CNC(=O)Nc1ccc(-c2nc(N3CC4CCC(C3)O4)c3cnn(C4CCC5(CC4)OCCO5)c3n2)cc1` showed a % of control [7] of 95% and a % of control [8] of 100%.
